Residues, ends and D or L forms follow the SMILES beside them.
Columns and labels:
[1] = HBA1(111–132) incubated in human plasma, 37 °C, mass spectrometry
Description: (§1) The mixture was centrifuged at 13,000 rpm for 30 s, and 150 µl of the supernatant was mixed with 750 µl 10% acetic acid in ice. The samples were analyzed by an Axima Confidence MALDI-TOF MS (Shimadzu) in linear mode using exactly the same measurement conditions for all samples spotted on a 384-well plate. Wells were coated with 1 µl of 5 mg/ml CHCA previously dissolved in matrix diluent (Shimadzu), and the solvent was allowed to evaporate. Then, each sample (0.5 µl), previously mixed with matrix (0.5 µl), was applied onto the dry pre-coated well, and the solvent was allowed to evaporate. Laser shots were automatically done following a regular circular raster of a diameter of 2000 µm and spacing of 200 µm on each well; 100 profiles were acquired per sample, and 20 shots were accumulated per profile. An accelerating voltage of 20 kV was applied to the ion source. Three experiments were performed, and the measurements of each sample were done in triplicate (81 measurements in total). The measurement and MS data processing (peak area calculation) were controlled by MALDI-MS Application Shimadzu Biotech Launchpad 2.9.8.1 (Shimadzu). Half-lives were calculated by GraphPad Prism 9.3.1 (GraphPad Software, LLC).

[2] = 1 mg/ml peptide in 1 × PBS, 22 °C, absorbance 330 nm, triplicates, corrected against PBS
Description: 100 µl peptide solution was transferred to transparent 96-well F-bottom microplates (Greiner) and immediately processed. Before the measurement, solutions were briefly mixed by double-orbital shaking for 60 s at 240 rpm. Measurements were done at 22 °C in triplicates using a TECAN Spark plate reader at a wavelength of 330 nm and a bandwidth of 3.5 nm. Values were corrected against 1 × PBS and averaged.

[3] = human; cited from earlier work
in vitro = conditions: human, plasma
Description: as §1

HeLa GL cells [4] = assay: Autophagy quantification via flow cytometry (membrane-bound eGFP-LC3B), HeLa GL; assay type: cell-based; conditions: 4 h; for autophagosome levels, versions of HBA1(120–132): 1 mg/ml, co-treatment with 20 µM Chloroquine, n = 10–24
Description: A detailed protocol for quantification of the number of autophagosomes has previously been published. In brief, HEK293T, HeLa, and THP-1 cell lines stably expressing eGFP-LC3B (labelled as -GL respectively) were used. After cells were treated for 4 h with respective substance/fraction, cells were harvested by removing the medium and adding 0.05% trypsin (PAN Biotech). Afterwards cells were washed once with PBS and permeabilized with 0.05% (w/v) Saponin (Sigma-Aldrich) in PBS. Non-membrane bound eGFP-LC3B was washed out using PBS. Cells were fixed in 4% (w/v) paraformaldehyde in PBS. Quantification of the membrane associated eGFP-LC3B was performed using flow cytometry FACS Canto II, BD Biosciences. The mean eGFP-LC3B fluorescence intensity of the water control was then subtracted from each sample.
To discover endogenous regulators of autophagy, we analyzed a human peptide library derived from bone marrow (BM). In brief, marrow was removed from 1.5 kg human femur bones and homogenized in acetic acid. The homogenate was filtered to contain only peptides with a molecular mass below 30 kDa. The BM library was initially separated on a reversed-phase column. To analyze the autophagy-modulating properties of individual peptide fractions, we used a high-throughput flow cytometry-based autophagosome quantification system. A hallmark of autophagy is the transition from soluble LC3B-I to autophagosome-associated LC3B-II. In GFP-LC3B expressing HeLa cells (HeLa GL), soluble GFP-LC3B is washed out by mild permeabilization and the remaining membrane-bound GFP-LC3B is quantified by FACS as a proxy for autophagosome numbers. Changes in autophagosome content are visualized as deviations from the background (i.e. carrier) control. […] Further purification identified subfraction BM.25.40.28 as bioactive (Fig. 1c). To identify the active peptide(s) we subjected fractions BM.25.40.26 to BM.25.40.30 to analysis by mass spectrometry (Supplementary data 1). Peptides with a molecular mass from ~ 750 Da to 5360 Da and a length from 7 to 57 amino acids were found in the fractions (Supplementary Fig. 1a). […]

Circular dichroism = assay type: physicochemical; conditions: 10 mM phosphate buffer pH 7.4, 25 °C; 130 µM HBA1(120–132), 54 µM HBA1(111–132), 2.1 µM full-length human HB
Description: Circular dichroism spectroscopy was recorded on a JASCO J-1500 spectrophotometer at 25 °C using a 0.1 cm path length quartz cuvette from Hellma Analytical. Data points were collected at a resolution of 0.2 nm, an integration time of 2 s and a scanning speed of 5 nm min-1. Each spectrum was the result of three accumulated independent scans. Phosphate buffer solution (10 mM, pH = 7.4) was employed to solubilize the samples. […] Background subtraction was performed using the solvent. Secondary structure estimation (SSE) for the samples was conducted using the CD Multivariate SSE program included in the JASCO spectrometer.

HeLa GL cells [5] = assay: Autophagy quantification by immunofluorescence (GFP-LC3B puncta area); assay type: cell-based; conditions: 4 h, peptides 1 mg/ml, Chloroquine 10 µM, Torin-1 1 µM, confocal microscopy, n = 32–110 cells
Description: HeLa GL cells were grown on coverslips (VWR) and treated for 4 h with respective substance. Afterwards, cells were fixed with 4% (w/v) PFA (Santa Cruz) for 20 min and permeabilized as well as blocked with 0.5% (v/v) Triton-X-100 (Sigma-Aldrich) and 5% (v/v) fetal bovine serum (Gibco) PBS for 1 h, both at RT. Cells were then mounted on microscope slides (VWR) in 4′,6-diamidino-2-phenylindole (DAPI, VWR)-containing Mowiol mounting medium (Mowiol 4–88 10% (w/v, Carl Roth), glycerol 25% (w/v, Sigma-Aldrich), H2O 25% (v/v), 0.2 M Tris HCl pH 8.5 50% (v/v, AppliChem GmbH, VWR), DABCO 2.5% (w/v, Carl Roth)) to co-stain nuclei. After acquiring ≥ 30 randomly selected cells using a Zeiss LSM 710 confocal microscope, a custom ImageJ (Version 1.54j) macro was used to analysis the total area of the cytoplasmic eGFP-LC3B puncta as previously described.
Scale bar, 10 µm. DAPI (blue), nuclei. e Quantitative analysis of the LC3B-GFP area per cell of the data in (d). Lines represent geometric mean with 95% confidence interval, n = 32–110. […] Student’s t-test with Welch correction. *p < 0.05; **p < 0.01; ***p < 0.001

CC(C)C[C@H](NC(=O)[C@H](Cc1ccccc1)NC(=O)[C@H](CCCCN)NC(=O)[C@H](CC(=O)O)NC(=O)[C@H](CC(C)C)NC(=O)[C@H](CO)NC(=O)[C@H](C)NC(=O)[C@H](Cc1c[nH]cn1)NC(=O)[C@@H](NC(=O)[C@H](C)NC(=O)[C@@H]1CCCN1C(=O)[C@@H](NC(=O)[C@H](Cc1ccccc1)NC(=O)[C@H](CCC(=O)O)NC(=O)[C@H](C)NC(=O)[C@@H]1CCCN1C(=O)[C@H](CC(C)C)NC(=O)[C@@H](N)Cc1c[nH]cn1)[C@@H](C)O)C(C)C)C(=O)N[C@@H](C)C(=O)N[C@@H](CO)C(=O)O [HBA1(113–132)] (H-HLPAEFTPAVHASLDKFLAS-OH)
time of appearance of degradation fragment above 5% of total HBA1 content [1]: ≤ 15 min | time of peak abundance of degradation fragment post plasma treatment [1]: > 140 min

CC(C)C[C@H](NC(=O)[C@H](Cc1ccccc1)NC(=O)[C@H](CCCCN)NC(=O)[C@H](CC(=O)O)NC(=O)[C@H](CC(C)C)NC(=O)[C@H](CO)NC(=O)[C@H](C)NC(=O)[C@H](Cc1c[nH]cn1)NC(=O)[C@@H](NC(=O)[C@H](C)NC(=O)[C@@H]1CCCN1C(=O)[C@@H](NC(=O)[C@H](Cc1ccccc1)NC(=O)[C@H](CCC(=O)O)NC(=O)[C@H](C)NC(=O)[C@@H]1CCCN1)[C@@H](C)O)C(C)C)C(=O)N[C@@H](C)C(=O)N[C@@H](CO)C(=O)O [HBA1(115–132)] (H-PAEFTPAVHASLDKFLAS-OH)
time of appearance of degradation fragment above 5% of total HBA1 content [1]: 180 min

CC(C)C[C@H](NC(=O)[C@H](C)NC(=O)[C@H](C)NC(=O)[C@H](Cc1c[nH]cn1)NC(=O)[C@@H](NC(=O)[C@H](C)NC(=O)[C@@H]1CCCN1)C(C)C)C(=O)N[C@@H](CC(=O)O)C(=O)N[C@@H](CCCCN)C(=O)N[C@@H](Cc1ccccc1)C(=O)N[C@@H](CC(C)C)C(=O)N[C@@H](C)C(=O)N[C@@H](C)C(=O)O [HBA1(120–132)S125A + S132A] (H-PAVHAALDKFLAA-OH)
solubility (precipitation turbidity, optical density) [2]: remained similar to HBA1(120–132)

TNF-α
half-life [3]: around 18 min

CC(C)C[C@H](NC(=O)[C@H](CO)NC(=O)[C@H](C)NC(=O)[C@H](Cc1c[nH]cn1)NC(=O)[C@@H](NC(=O)[C@H](C)NC(=O)[C@@H]1CCCN1)C(C)C)C(=O)N[C@@H](C)C(=O)N[C@@H](C)C(=O)N[C@@H](Cc1ccccc1)C(=O)N[C@@H](CC(C)C)C(=O)N[C@@H](C)C(=O)N[C@@H](CO)C(=O)O [HBA1(120–132)D127A + K128A] (H-PAVHASLAAFLAS-OH)
solubility (precipitation turbidity, optical density) [2]: almost insoluble in water

CC(C)C[C@H](NC(=O)[C@H](Cc1ccccc1)NC(=O)[C@H](CCCCN)NC(=O)[C@H](CC(=O)O)NC(=O)[C@H](CC(C)C)NC(=O)[C@H](CO)NC(=O)[C@H](C)NC(=O)[C@H](Cc1c[nH]cn1)NC(=O)[C@@H](NC(=O)[C@H](C)NC(=O)[C@@H]1CCCN1C(=O)[C@@H](NC(=O)[C@H](Cc1ccccc1)NC(=O)[C@H](CCC(=O)O)NC(=O)[C@H](C)NC(=O)[C@@H]1CCCN1C(=O)[C@H](CC(C)C)NC(=O)[C@H](Cc1c[nH]cn1)NC(=O)[C@H](C)NC(=O)[C@H](C)N)[C@@H](C)O)C(C)C)C(=O)N[C@@H](C)C(=O)N[C@@H](CO)C(=O)O [HBA1(111–132)] (H-AAHLPAEFTPAVHASLDKFLAS-OH)
half-life at 8.7 µM (in vitro): 52 min

D128A: HBA1(120–132) with aspartic acid exchanged for alanine (PAVHASLAKFLAS; UniProt P69905 120-132, looked up, fragment D127A)
autophagosome levels, versions of HBA1(120–132) (HeLa GL cells [4]): does not alter the function | solubility (precipitation turbidity, optical density) [2]: does not alter the function nor the solubility

full-length HBA1: full-length hemoglobin A (HB subunit alpha-1)
effect on autophagosome levels (HeLa GL cells [4]; concentration range 1 mg/ml–7.8 µg/ml, n = 3): did not impact autophagosome levels

full-length HB: recombinant full-length hemoglobin
secondary structure in solution (circular dichroism) (Circular dichroism): mainly composed of alpha-helical structures

CCN(CC)CCCC(C)Nc1ccnc2cc(Cl)ccc12 (stereo not drawn) [Chloroquine]
GFP-LC3B area per cell (puncta = autophagosomes) (HeLa GL cells [5]): expected increase of autophagosomes

K127A: HBA1(120–132) with lysine exchanged for alanine (PAVHASLDAFLAS; UniProt P69905 120-132, looked up, fragment K128A)
autophagosome levels, versions of HBA1(120–132) (HeLa GL cells [4]): the function to inhibit autophagy was reduced | solubility (precipitation turbidity, optical density) [2]: precipitates were detected

CCC(=O)N1CCN(c2ccc(-n3c(=O)ccc4cnc5ccc(-c6cnc7ccccc7c6)cc5c43)cc2C(F)(F)F)CC1 [Torin-1]
GFP-LC3B area per cell (puncta = autophagosomes) (HeLa GL cells [5]): expected increase of autophagosomes
